{
  "source": "patent US20250177566A1",
  "about": "“USE OF CHEMICAL EPIGENETIC MODIFIERS TO MODULATE GENE EXPRESSION” (The University of North Carolina at Chapel Hill, priority 2022, published 2025)",
  "format_in_all_cases": "cell-based, human",
  "key": {"[1]": {"system": "rAAV2 transgene expression (firefly luciferase)", "assay": "rAAV2 SLF* CEM system dual luciferase assay, HEK293T Renilla, multiplicity of infection", "conditions": "FIGS. 14B and 14C; 0, 10 or 100 nM CEM207; increasing vg/cell", "source_text": "It was investigated whether rAAV transgene expression can be epigenetically controlled. Rapid screening of CEM technology can be performed with dual liucierase assays. (FIG. 10). Briefly, a cell line can be stably transduced with Ef1a-Renilla, enabling normalization to cell number. The cells are then either infected with AAV or tranfected with plasmid and dosed with a chemical epigenetic modifier. Luminescence can then be measured with the Dual Lucieferase Reporter, commercially available from Promega. This approach is described in more detail in the methods section of the example. Gene activation can be described as normalized luciferase or fold change. A measure of total gene expression can be calculated by\nNext, it was determined whether SLF*CEMs can regulate AAV. The cassette shown in FIG. 14A was inserted into rAAV2 and infected into HEK293T Renilla. […] Next, it was explored whether the cassette was truly modular by varying the promoter while retaining SLF* CEM successful activation of rAAV2. […]\nDay 4 (72 h): Data was obtained using the Promega Dula Luciferase Reporter (DLR) assay: first, the cells were washed with 100 μL of PBS/well dropwise followed by 20 μL of 1× passive lysis buffer (PLB) added to each well. The cells were incubated for 15 minutes in PLB and the assay ran on pheraSTAR microplate reader with 100 μL of each DLR reagent, gain=3600."}, "[2]": {"system": "firefly luciferase expression cassette", "assay": "Transfection evaluating multiple promoters, SLF* CEM system, dual luciferase assay, 293T Renilla", "conditions": "FIGS. 15A and 15B; ybTATA, miniCMV, Het, Ef1a core, hPGK; 0, 5, 15 or 50 nM CEM207", "procedure": "Next, it was determined whether SLF*CEMs can regulate AAV. The cassette shown in FIG. 14A was inserted into rAAV2 and infected into HEK293T Renilla. […] Next, it was explored whether the cassette was truly modular by varying the promoter while retaining SLF* CEM successful activation of rAAV2.\nTransfection Evaluating Multiple Promoters—SLF* CEM System with 0, 5, 15 or 50 nM CEM207:\nDay 1 (0 h): 293T cells with stably infected Renilla under the control of full length Ef1a promoter were plated in a 96 well plate; 10 k cells/well, 100 μL media/well. All conditions were plated in biological triplicate.\nDay 2 (24 h): A PEI transfection mixture of each construct (Jet, ybTATA, miniCMV, Ef1a core, and hPGK) was prepared and added to each well: 0.1 μg of DNA, 0.3 μL of PEI, and 4 μL of Opti-MEM per well, with PEI added last. Reagents were mixed well and incubated for 15 minutes. 4 μL of the appropriate transfection mixture was added to each well. […]\nDay 5 (96 h): […] Data was obtained using the Promega Dula Luciferase Reporter (DLR) assay: first, the cells were washed with 100 μL of PBS/well dropwise followed by 20 μL of 1× passive lysis buffer (PLB) added to each well. The cells were incubated for 15 minutes in PLB and the assay ran on pheraSTAR microplate reader with 25 μL of each DLR reagent, gain=2000."}, "HEK293T cells": {"system": "HEK293T cells", "assay": "alamarBlue cell viability assay, HEK293T", "procedure": "FIGS. 8A-8B show alamarBlue cell viability assays. HEK293T or HCT116 cells were plated in 96-well plates 24 hrs before chemical treatment of 0.001, 0.01, 0.1, 1, 10, 50, and 100 μM CEM207 was added. Another group of cells were treated with all concentrations of CEM207 mentioned above along with 200 nM CEM87 in all samples. After 4 days of chemical exposure, cell growth was measured by fluorescence. […] HCT116 cells were stably infected with dCas9 and MS2-FKBP*x2 constructs and transfected with CXCR4 gRNA. After 24 hrs of 25 nM CEM207 treatment, ChIP-qPCR was performed at different base pair distances from the transcription start site of CXCR4 gene. […] Error bars represent the standard deviation.\nAlamarBlue cell viability assay. HEK293T or HCT116 cells were placed in black 96-well plates with clear bottom. 24 hrs later, media was exchanged to include 0.001, 0.01, 0.1, 1, 10, 50, 100 μM concentrations of CEM207, or all CEM207 concentrations above along with 200 nM CEM87. After 4 days of chemical exposure, alamarBlue Cell Viability Reagent (Invitrogen, DAL1025) was added to each well. Cells were incubated at 37° C. for 4 hrs and fluorescence was read using the TECAN Infinite F200 Fluorescence Microplate Reader. IC50 values were calculated using GraphPad Prism 9."}},
  "data": [
    {"compound": "CC[C@H](C(=O)N1CCCC[C@H]1C(=O)O[C@H](CCc1ccc(OC)c(OC)c1)c1cccc(OCC(=O)NCCOCCOCCNC(=O)C[C@@H]2N=C(c3ccc(Cl)cc3)c3c(sc(C)c3C)-n3c(C)nnc32)c1)c1cc(OC)c(OC)c(OC)c1", "note": "[CEM207, (R)-1-(3-((14-((S)-4-(4-Chlorophenyl)-2,3,9-trimethyl-6H-thieno[3,2-f][1,2,4]triazolo[4,3-a][1,4]diazepin-6-yl)-2,13-dioxo-6,9-dioxa-3,12-diazatetradecyl)oxy)phenyl)-3-(3,4-dimethoxyphenyl) propyl(S)-1-((S)-2-(3,4,5-trimethoxyphenyl)butanoyl) piperidine-2-carboxylate]", "values": [
      {"measurement": "activation of rAAV2 luciferase expression with viral titer escalation", "setting": "[1]", "result": "compatible with viral titer escalation"},
      {"measurement": "activation with varied minimal promoters", "setting": "[2]", "result": "tolerates a variety of minimal promoters"},
      {"measurement": "IC50", "setting": "HEK293T cells; CEM207 treatment alone, 4 days of exposure", "result": 106, "unit": "nM"},
      {"measurement": "IC50", "setting": "HEK293T cells; treated simultaneously with 200 nM CEM87, 4 days of exposure", "result": 78.6, "unit": "nM"}
    ]}
  ]
}
